Measurements from PMC11597746 (Pharmaceutics, 2024).
“And” between values parts separate entries of the source, which are not always exact repeats. Equal entries are not always repeated. Structures can show the parent of a compound that is named as a salt. Where two headings read alike, the source gives them in different places. One block for each compound: values may come before it.

Tests used:
[1] = Plasma pharmacokinetics of PA, GPA and SPA in rats after single oral dose (HPLC-UV, noncompartmental analysis); type: in vivo, rats (Rattus norvegicus, outbred Wistar stock, males)
Description: (§1) Rats (Rattus norvegicus, outbred Wistar stock, males, 14 weeks old) were obtained from Anima Sp. z o.o. SK & ViVARI s.c. They were acclimated for one week in a temperature- and humidity-controlled environment with a 12 h light/dark cycle and had ad libitum access to food and water.
The drugs and vehicle were administered directly into the animals’ stomachs using a gastric probe. Animals received drugs in a sequential manner.
(§2) Blood samples were stored at −80 °C until analysis.
(§3) This approach reduced the number of animals involved in the experiment, adhering to the principles of the 3R concept. […] No other experimental conditions were altered.
The column temperature was maintained at 25 °C, the analytical wavelength (λmax) was set at 254 nm, and the injection volume was 50 μL. Theophylline was used as the IS.
The total time of analysis for each run was 10 min. Separation was achieved by isocratic elution of the mobile phase, comprising acetonitrile (93:7, v/v) and sodium sulfate 0.05 M pH 2.2 (adjusted with 85% orthophosphoric acid) at a flow rate of 1.0 mL/min through a BDS Hypersil® C18 column (150 mm × 4.6 mm, 5.0 μm particle size) (Thermo Electron Corporation®, Waltham, MA, USA).
(§4) Plasma data were subjected to noncompartmental pharmacokinetic analysis (NCA) using the PKanalix 2024R1 software (Lixoft, France). The maximum plasma concentration (Cmax) and time to reach Cmax (Tmax) were obtained directly from the concentration–time curves. The elimination rate constant (kel) was calculated by linear regression of the final linear part of plasma concentration against time. The elimination half-life (t0.5) was calculated from the formula t0.5 = 0.693/kel. The area under the concentration–time curve (AUC) was calculated using the linear trapezoidal rule. All data were presented as mean ± SD.

[2] = IIIPA group: PA 100 mg/kg b.w. + vehiculum, n = 8, mean ± SD, cited from earlier work
[3] = Plasma pharmacokinetics of REG, M-2 and M-5 in rats after single oral dose (UPLC-MS/MS, noncompartmental analysis); type: in vivo, rats (Rattus norvegicus, outbred Wistar stock, males); conditions: for AUC0–∞ increased by / Cmax increased by: after the administration of PA (IREG+PA vs. IIREG); for AUC0–t / AUC0–∞ / Cmax: metabolite of REG
Description: as §1
The rats were divided into three groups: one group received REG and PA (IREG+PA), another group received REG (IIREG), and the last group received PA (IIIPA). […] [15] to the IREG+PA and IIIPA groups. The drugs and vehicle were administered directly into the animals’ stomachs using a gastric probe. Animals received drugs in a sequential manner.
as §2, §3
A Cortecs UPLC C18 column (2.1 × 50 mm, 1.6 μm) was equipped with an Acquity UPLC BEH C18 VanGuard pre-column (2.1 × 5 mm, 3/Pk, Waters Corporation). The injection volume was 5 μL. The temperature of the autosampler was 4 °C, and the temperature of the column was 40 °C. Mobile phase A comprised 0.1% aqueous FA solution (v/v) and phase B of ACN:MeOH and 0.1% FA aqueous solution at 1:3 (v/v) ratio. The total run time was 5 min.
The gradient was as follows: 0–0.5 min, with 10% B; 0.5–3 min, 95% B; 3–4 min, 95% B; 4–4.1 min, 10% B; and 4.1–5 min, 10% B. The flow rate was 0.4 mL/min. Positive electrospray ionization (ESI) multiple reaction monitoring (MRM) experiments were conducted for sample analysis. […] The Xevo TQ-S micro mass spectrometer settings were used: source temperature 150 °C, desolvation temperature 600 °C, nitrogen gas flow 900 L/h, and capillary voltage 3.6 kV.
as §4

[4] = mean ± SD, cited from earlier work
[5] = patients taking lorlatinib compared to controls; cited from earlier work
[6] = after administration in tablet form; cited from earlier work
plasma proteins = conditions: cited from earlier work
[7] = IREG+PA group: REG 20 mg/kg b.w. + PA 100 mg/kg b.w., n = 8, mean ± SD
[8] = IREG+PA group: REG 20 mg/kg b.w. + PA 100 mg/kg b.w., single p.o. dose, n = 8, mean ± SD
[9] = PA co-administered with REG vs. PA alone
[10] = IREG+PA group: REG 20 mg/kg b.w. + PA 100 mg/kg b.w., single oral dose, n = 8, mean ± SD
[11] = metabolite of REG, IIREG group: vehiculum + REG 20 mg/kg b.w., single oral dose, n = 8
[12] = regorafenib and paracetamol vs. control group
[13] = IIREG group: vehiculum + REG 20 mg/kg b.w., single oral dose, n = 8

Structure (SMILES): CC(=O)Nc1ccc(O[C@@H]2O[C@H](C(=O)O)[C@@H](O)[C@H](O)[C@H]2O)cc1 [GPA, paracetamol glucuronide]
Ratio GPA/PA AUC0–t [1, 7]: 1.50 ± 0.30 (19.7) | Ratio GPA/PA AUC0–∞ [1, 7]: 1.53 ± 0.34 (21.9) | Ratio GPA/PA Cmax [1, 7]: 1.02 ± 0.19 (18.9) | AUC0–t [1, 8]: 97.9 ± 16.13 (16.5) µg × h/mL | AUC0–∞ [1, 8]: 102.00 ± 18.50 (18.1) µg × h/mL | Cmax [1, 8]: 27.11 ± 3.05 (11.25) µg/mL | GPA/PA ratio for Cmax decreased by ([1]; IREG+PA vs. IIIPA): 63.73% | Gmean ratio (90% CI) of AUC0–t ([1]; IREG+PA vs. IIIPA): 0.72 (0.62; 0.84) | Gmean ratio (90% CI) of AUC0–∞ ([1]; IREG+PA vs. IIIPA): 0.67 (0.55; 0.80) | Gmean ratio (90% CI) of Cmax ([1]; IREG+PA vs. IIIPA): 0.71 (0.64; 0.77) | Gmean ratio (90% CI) of ratio GPA/PA AUC0–t ([1]; IREG+PA vs. IIIPA): 0.87 (0.70; 1.09) | Gmean ratio (90% CI) of ratio GPA/PA AUC0–∞ ([1]; IREG+PA vs. IIIPA): 0.88 (0.68; 1.13) | Gmean ratio (90% CI) of ratio GPA/PA Cmax ([1]; IREG+PA vs. IIIPA): 0.62 (0.50; 0.77) | AUC0–t decreased by [1, 9]: 39.16% | AUC0–∞ decreased by [1, 9]: 51.1% and 51.07% | Ratio GPA/PA AUC0–t [2]: 1.75 ± 0.47 (27.1) | Ratio GPA/PA AUC0–∞ [2]: 1.78 ± 0.54 (30.6) | Ratio GPA/PA Cmax [2]: 1.67 ± 0.41 (24.8) | AUC0–t ([2]; single p.o. dose): 136.24 ± 23.58 (17.3) µg × h/mL | AUC0–∞ ([2]; single p.o. dose): 154.09 ± 35.58 (23.09) µg × h/mL | Cmax ([2]; single p.o. dose): 38.38 ± 3.75 (9.8) µg/mL

Structure (SMILES): CC(=O)Nc1ccc(O)cc1 [PA, paracetamol, reference compound]
Cmax [1, 8]: 27.08 ± 3.88 (14.3) µg/mL | t0.5 [1, 8]: 1.14 ± 0.45 (39.7) h | AUC0–t decreased by [1, 9]: 20.72% | AUC0–t decreased by ([1]; PA co-administered with REG vs. PA alone, listed as paracetamol): 17.16% | decrease in Vd/F [1, 12]: 54.04% | decrease in t0.5 [1, 12]: 49.56% | Vd/F ([2]; single p.o. dose): 1.98 ± 0.63 mL/g | t0.5 ([2]; single p.o. dose): 2.26 ± 0.70 (31.0) h | tmax ([2]; single p.o. dose): 0.81 ± 0.58 (71.2) h | decrease in AUC0–∞ [5]: 43% | decrease in Cmax [5]: 15%

Structure (SMILES): CNC(=O)c1cc(Oc2ccc(NC(=O)Nc3ccc(Cl)c(C(F)(F)F)c3)c(F)c2)ccn1 [REG, regorafenib]
t0.5 [3, 10]: 10.67 ± 2.48 (23.28) h | AUC0–∞ increased by [3]: 1140% | Cmax increased by [3]: 890% | AUC0–∞ [4, 13]: 36.85 ± 5.83 (15.8) µg × h/mL | Cmax [4, 13]: 1.87 ± 0.31 (16.5) µg/mL | Vd/F [4, 13]: 2.05 ± 0.61 (29.7) L | kel [4, 13]: 0.11 ± 0.03 (22.8) 1/h | Sum of the Cmax values for REG, M-2, and M-5 ([4]; IIREG group): 2078.95 ± 691.36 ng/mL | average bioavailability [6]: 69% | bind to plasma proteins (plasma proteins): 99.5%

Structure (SMILES): CC(=O)Nc1ccc(OS(=O)(=O)O)cc1 [SPA, paracetamol sulfate]
Ratio SPA/PA AUC0–t [1, 7]: 2.18 ± 0.50 (22.9) | Ratio SPA/PA AUC0–∞ [1, 7]: 2.40 ± 0.68 (28.4) | Ratio SPA/PA Cmax [1, 7]: 1.14 ± 0.12 (10.1) | AUC0–t [1, 8]: 140.89 ± 17.87 (12.7) µg × h/mL | AUC0–∞ [1, 8]: 157.71 ± 24.35 (15.4) µg × h/mL | Cmax [1, 8]: 30.61 ± 3.94 (12.9) µg/mL | Gmean ratio (90% CI) of AUC0–t ([1]; IREG+PA vs. IIIPA): 2.13 (1.58; 2.86) | Gmean ratio (90% CI) of AUC0–∞ ([1]; IREG+PA vs. IIIPA): 2.04 (1.54; 2.71) | Gmean ratio (90% CI) of Cmax ([1]; IREG+PA vs. IIIPA): 1.67 (1.29; 2.15) | Gmean ratio (90% CI) of ratio SPA/PA AUC0–t ([1]; IREG+PA vs. IIIPA): 2.58 (1.84; 3.60) | Gmean ratio (90% CI) of ratio SPA/PA AUC0–∞ ([1]; IREG+PA vs. IIIPA): 2.69 (1.94; 3.72) | Gmean ratio (90% CI) of ratio SPA/PA Cmax ([1]; IREG+PA vs. IIIPA): 1.47 (1.04; 2.09) | SPA/PA ratio for AUC0–t increased by ([1]; IREG+PA vs. IIIPA): 139.52% | SPA/PA ratio for AUC0–∞ increased by ([1]; IREG+PA vs. IIIPA): 155.32% | AUC0–t increased by [1, 9]: 95.89% | AUC0–∞ increased by [1, 9]: 91.35% | Cmax increased by [1, 9]: 57.70% | Ratio SPA/PA AUC0–t [2]: 0.91 ± 0.43 (47.3) | Ratio SPA/PA AUC0–∞ [2]: 0.94 ± 0.40 (42.4) | Ratio SPA/PA Cmax [2]: 0.88 ± 0.46 (52.7) | AUC0–t ([2]; single p.o. dose): 71.92 ± 31.03 (43.2) µg × h/mL | AUC0–∞ ([2]; single p.o. dose): 82.42 ± 32.71 (39.7) µg × h/mL | Cmax ([2]; single p.o. dose): 19.41 ± 7.05 (36.4) µg/mL

The next lines start with results.

AUC0–∞ increased by [3]: 170% | Cmax increased by [3]: 220% | AUC0–t [3, 10]: 31,036.39 ± 16,132.08 (52.0) ng × h/mL | AUC0–∞ [3, 10]: 31,434.01 ± 16,129.53 (51.3) ng × h/mL | Cmax [3, 10]: 1087.58 ± 471.76 (43.4) ng/mL
Structure (SMILES): CNC(=O)c1cc(Oc2ccc(NC(=O)Nc3ccc(Cl)c(C(F)(F)F)c3)c(F)c2)cc[n+]1[O-] [M-2, regorafenib-N-oxide]
AUC0–t [4, 11]: 9615.36 ± 2275.41 (23.7) ng × h/mL | AUC0–∞ [4, 11]: 11,469.93 ± 2133.05 (18.6) ng × h/mL

AUC0–∞ increased by [3]: 1730% | Cmax increased by [3]: 2130% | AUC0–t [3, 10]: 15,054.83 ± 7479.43 (49.7) ng × h/mL | AUC0–∞ [3, 10]: 15,506.44 ± 8001.74 (51.6) ng × h/mL | Cmax [3, 10]: 585.96 ± 193.12 (33.0) ng/mL
Structure (SMILES): NC(=O)c1cc(Oc2ccc(NC(=O)Nc3ccc(Cl)c(C(F)(F)F)c3)c(F)c2)cc[n+]1[O-] [M-5, N-desmethyl-regorafenib-N-oxide]
AUC0–t [4, 11]: 803.19 ± 177.02 (22.0) ng × h/mL | AUC0–∞ [4, 11]: 847.88 ± 178.97 (21.1) ng × h/mL
